What was measured:
U937 cells = experiment: Inhibition of TNF-α-induced necroptosis of U937 cells (CCK-8 assay); type: cell-based, human; details: Homo sapiens, U-937, TNF-α 20 ng/mL + BV6 2 µM + Z-VAD-FMK 20 µM, 18 h
Description: Example 56: Inhibition of TNF-α-Induced Necroptosis of U937 Cells by Compounds
• 1. Experimental reagents: RPMI-1640 culture medium, fetal bovine serum, penicillin-streptomycin, TNF-α (MCE, HY-P7058), BV6 (MCE, HY-16701), Z-VAD-FMK (MCE, HY-16658B), and CCK-8 (Dalian Meilun Biotech Co., Ltd., MA0218). • 2. Experimental instruments: medical low-temperature freezer (Thermo Fisher scientific, 902-ULTS), electrically heated thermostatic water bath (Shanghai Bluepard Instruments Co., Ltd., CD-420), low-speed centrifuge (ANHUI USTC Zonkia Scientific Instruments Co., Ltd, SC-3616), carbon dioxide incubator (Shanghai Bluepard Instruments Co., Ltd., BPN-150CH(UV)), inverted microscope (Olympus, CKX53), multi-functional microplate reader (Thermo Tecan, SPARK), class-II biosafety cabinet (AIRTECH, BSC-1304IIA2), and desktop cell counter (Thermo Fisher Scientific, Countess II). • 3. Cell culturing: U937 cells (human histiocytic lymphoma cells) were cultured in an RPMI-1640 culture solution containing 10% fetal bovine serum and 1% penicillin-streptomycin solution in a 5% CO2 incubator at 37 °C and a saturated humidity. The cell culture flask was vertically placed in the incubator. A T25 culture flask was used as an example, the culture solution in the flask was 6-8 mL, and culture medium changes and cell passaging were performed 3-4 times a week. • 4. […] The culture medium was taken out from the freezer and transferred to the water bath for pre-heating. An appropriate amount of culture medium was then taken for use. • (2) The cell suspension was transferred to a 15 mL sterile centrifuge tube and centrifuged at 850 rpm for 4 min to collect U937 cells. • (3) The supernatant was carefully discarded, and an appropriate amount of culture medium was added. The mixture was gently pipetted using a pipette to homogenize the cells and thus prepare a single-cell suspension, and the cells were counted. • (4) The cells were diluted to 4 × 10^5/mL and seeded into a 96-well plate at 90 µL/well, such that the cell density in the 96-well plate was 3.6 × 10 ^4 cells/well. The cells were incubated in a 5% CO 2 incubator at 37 °C and a saturated humidity for 6 h, followed by the addition of compounds. • 4.2 Dilution and addition of compounds: • (1) TNF-α was dissolved in PBS to obtain a 100 µg/mL stock solution and aliquoted; Z-VAD-FMK was dissolved in DMSO to obtain a 10 mM stock solution and aliquoted; BV6 was dissolved in DMSO to obtain a 10 mM stock solution and aliquoted; GSK2982772 was dissolved in DMSO to obtain a 10 mM stock solution and aliquoted. One aliquot of each stock solution was stored at -20 °C for immediate use, while the remaining aliquots were stored at - 80 °C and used within their shelf life. • (2) RPMI-1640 culture medium containing TNF-α, BV6, and Z-VAD-FMK was prepared (5 µL/per well), such that the final concentrations of TNF-α, BV6, and Z-VAD-FMK were 20 ng/mL, 2 µM, and 20 µM, respectively. • (3) Each target compound was three-fold diluted with a culture medium to 8 concentration gradients, with each concentration set in duplicate (5 µL/well). The final concentrations of each target compound were 1000.00/333.33/111.11/37.04/12.35/4.12/1.37/0.46 nM. • (4) The 96-well plate containing 90 µL of cell suspension was taken out from an incubator, and a positive control group, test compound groups, and a DMSO (5‰) control group were set. 5 µL of RPMI-1640 culture solution containing TNF-α, BV6, and Z-VAD-FMK and 5 µL of culture solution containing the test compound were added to the positive control group and the test compound groups. After compound addition, the mixtures were cultured for 18 h, followed by the CCK-8 assay. • (5) The 96-well plate was taken out, and the CCK-8 reagent was carefully added at 10 µL/well. The mixtures were incubated at 37 °C for 2-4 h, and the absorbance value was measured at a wavelength of 450 nm. • 5. Evaluation of inhibitory activity of compounds on TNF-α-induced necroptosis of U937 [formula] […]

HT-29 cells = experiment: Inhibition of TNF-α-induced necroptosis of HT-29 cells (SRB method); type: cell-based, human; details: Homo sapiens, HT-29, TNF-α 20 ng/mL + BV6 2 µM + Z-VAD-FMK 20 µM, 18 h
Description: Example 57: Inhibition of TNF-α-Induced Necroptosis of HT-29 Cells by Compounds
• 1. Experimental reagents: McCOY's 5A culture medium, fetal bovine serum, penicillin-streptomycin, trypsin, PBS, TNF-α (MCE, HY-P7058), BV6 (MCE, HY-16701), Z-VAD-FMK (MCE, HY-16658B), SRB kit (Shanghai BestBio Biotechnology Co., Ltd., BB-4208-500T). • 2. Experimental instruments: medical low-temperature freezer (Thermo Fisher scientific, 902-ULTS), electrically heated thermostatic water bath (Shanghai Bluepard Instruments Co., Ltd., CD-420), low-speed centrifuge (ANHUI USTC Zonkia Scientific Instruments Co., Ltd, SC-3616), carbon dioxide incubator (Shanghai Bluepard Instruments Co., Ltd., BPN-150CH(UV)), inverted microscope (Olympus, CKX53), multi-functional microplate reader (Thermo Tecan, SPARK), class-II biosafety cabinet (AIRTECH, BSC-1304IIA2), and desktop cell counter (Thermo Fisher Scientific, Countess II). • 3. Cell culturing: HT-29 cells (human colon cancer cells) were cultured in a McCOY's 5A culture solution containing 10% fetal bovine serum and 1% penicillin-streptomycin solution in a 5% CO 2 at 37 °C and a saturated humidity, and culture medium changes and cell passaging were performed 3-4 times a week. • 4. […] The culture medium, trypsin, etc., were taken out from the freezer and transferred to the water bath for pre-heating. An appropriate amount of these substances was then taken for use. • (2) The old culture medium in the flask was aspirated using a sterile pipette and discarded, and the cells were washed 3 times with PBS. 1 mL of trypsin (25 cm^2 cell culture flask) was added into the flask, and the flask was gently shaken to allow the trypsin to cover all the cell surfaces. Digestion was performed in an incubator at 37 °C. After 2 min of digestion, the flask was placed under a microscope for observation. […] The mixture was gently pipetted using a pipette to homogenize the cells and thus prepare a single-cell suspension, and the cells were counted. • (5) The cells were diluted to 3 × 10^5/mL and seeded into a 96-well plate at 100 µL/well, such that there were 3 × 10^4 cells per well in the 96-well plate. The cells were incubated in a 5% CO2 incubator at 37 °C and a saturated humidity for 24 h, followed by the addition of compounds. • 4.2 Dilution and addition of compounds: • (1) TNF-α was dissolved in PBS to obtain a 100 µg/mL stock solution and aliquoted; Z-VAD-FMK was dissolved in DMSO to obtain a 10 mM stock solution and aliquoted; BV6 was dissolved in DMSO to obtain a 10 mM stock solution and aliquoted; GSK2982772 was dissolved in DMSO to obtain a 10 mM stock solution and aliquoted. One aliquot of each stock solution was stored at -20 °C for immediate use, while the remaining aliquots were stored at - 80 °C and used within their shelf life. • (2) McCOY's 5A culture solution containing TNF-α, BV6, and Z-VAD-FMK was prepared. For the positive control group and the test compound groups, the McCOY's 5A culture solution was added at 90 µL/well, and 10 µL of the culture medium containing the test compound was also added, thus making the final concentrations of TNF-α, BV6, and Z-VAD-FMK be 20 ng/mL, 2 µM, and 20 µM, respectively. For the DMSO (5‰) control group, 90 µL of the McCOY's 5A complete culture solution was added, and then 10 µL of DMSO was added, thus making the final concentration 5‰. • (3) Each target compound was three-fold diluted with a culture medium to 8 concentration gradients, with each concentration set in duplicate (10 µL/well). The final concentrations of each target compound were 1000.00/333.33/111.11/37.04/12.35/4.12/1.37/0.46 nM. • (4) The 96-well plate cultured for 24 h was taken out from the incubator, and the culture medium in the 96-well plate was carefully aspirated and discarded. A positive control group, test compound groups, and a DMSO (5‰) control group were set, and 10 µL of the corresponding compound was added to each group. […]

Structure (SMILES) | EC50 (U937 cells) [nM] | EC50 (HT-29 cells) [nM]
O=C(NC1CCc2cc(C#Cc3ccncc3)cc3c2N(CC3)C1=O)c1nnc(Cc2c(Cl)cccc2Cl)[nH]1 (stereo not drawn) [Compound I-13, 5-(2,6-dichlorobenzyl)-N-(4-oxo-9-(pyridin-4-ylethynyl)-1,2,3,4,6,7-hexahydroazepino[3,2,1-hi]indol-3-yl)-4H-1,2,4-triazole-3-carboxamide] | > 200 | > 200
Cn1cc(C#Cc2cc3c4c(c2)CCN4C(=O)C(NC(=O)c2cccc(Oc4ccccc4)n2)CC3)cn1 (stereo not drawn) [Compound V-1, N-(9-((1-methyl-1H-pyrazol-4-yl)ethynyl)-4-oxo-1,2,3,4,6,7-hexahydroazepino[3,2,1-hi]indol-3-yl)-6-phenoxypicolinamide] | > 200 | > 200
Cn1cc(C#Cc2cc3c4c(c2)CCN4C(=O)C(NC(=O)c2ccc(Oc4ccccc4)cn2)CC3)cn1 (stereo not drawn) [Compound V-2, N-(9-((1-methyl-1H-pyrazol-4-yl)ethynyl)-4-oxo-1,2,3,4,6,7-hexahydroazepino[3,2,1-hi]indol-3-yl)-5-phenoxypicolinamide] | > 200 | > 200
O=C(NC1CCc2ccc(C#Cc3ccccn3)c3c2N(CC3)C1=O)c1nnc(Cc2ccccc2)[nH]1 (stereo not drawn) [II-1, 5-benzyl-N-(4-oxo-8-(pyridin-2-ylethynyl)-1,2,3,4,6,7-hexahydroazepino[3,2,1-hi]indol-3-yl)-4H-1,2,4-triazole-3-carboxamide] | 10 to 100 | 10 to 100
O=C(NC1CCc2ccc(C#Cc3cccnc3)c3c2N(CC3)C1=O)c1nnc(Cc2ccccc2)[nH]1 (stereo not drawn) [II-2, 5-benzyl-N-(4-oxo-8-(pyridin-3-ylethynyl)-1,2,3,4,6,7-hexahydroazepino[3,2,1-hi]indol-3-yl)-4H-1,2,4-triazole-3-carboxamide] | 100 to 200 | 10 to 100
O=C(NC1CCc2ccc(C#CC3CC3)c3c2N(CC3)C1=O)c1nnc(Cc2ccccc2)[nH]1 (stereo not drawn) [II-3, 5-benzyl-N-(8-(cyclopropylethynyl)-4-oxo-1,2,3,4,6,7-hexahydroazepino[3,2,1-hi]indol-3-yl)-4H-1,2,4-triazole-3-carboxamide] | > 200 | 100 to 200
O=C(NC1CCc2ccc(C#Cc3ccncc3)c3c2N(CC3)C1=O)c1nnc(Cc2ccccc2)[nH]1 (stereo not drawn) [II-4, 5-benzyl-N-(4-oxo-8-(pyridin-4-ylethynyl)-1,2,3,4,6,7-hexahydroazepino[3,2,1-hi]indol-3-yl)-4H-1,2,4-triazole-3-carboxamide] | 10 to 100 | 100 to 200
O=C(NC1CCc2cc(C#Cc3ccncc3)cc3c2N(CC3)C1=O)c1ncn(Cc2c(F)cccc2F)n1 (stereo not drawn) [III-2, 1-(2,6-difluorobenzyl)-N-(4-oxo-9-(pyridin-4-ylethynyl)-1,2,3,4,6,7-hexahydroazepino[3,2,1-hi]indol-3-yl)-1H-1,2,4-triazole-3-carboxamide] | < 5 | 10 to 100
O=C(NC1CCc2cc(C#Cc3ccncc3)cc3c2N(CC3)C1=O)c1ncn(Cc2ccccc2)n1 (stereo not drawn) [III-3, 1-benzyl-N-(4-oxo-9-(pyridin-4-ylethynyl)-1,2,3,4,6,7-hexahydroazepino[3,2,1-hi]indol-3-yl)-1H-1,2,4-triazole-3-carboxamide] | 10 to 100 | 10 to 100
CC(C)(O)C#Cc1cc2c3c(c1)CCN3C(=O)C(NC(=O)c1ncn(Cc3c(F)cccc3F)n1)CC2 (stereo not drawn) [III-4, 1-(2,6-difluorobenzyl)-N-(9-(3-hydroxy-3-methylbut-1-yn-1-yl)-4-oxo-1,2,3,4,6,7-hexahydroazepino[3,2,1-hi]indol-3-yl)-1H-1,2,4-triazole-3-carboxamide] | < 5 | < 5
COCC#Cc1cc2c3c(c1)CCN3C(=O)C(NC(=O)c1ncn(Cc3c(F)cccc3F)n1)CC2 (stereo not drawn) [III-5, 1-(2,6-difluorobenzyl)-N-(9-(3-methoxyprop-1-yn-1-yl)-4-oxo-1,2,3,4,6,7-hexahydroazepino[3,2,1-hi]indol-3-yl)-1H-1,2,4-triazole-3-carboxamide] | < 5 | < 5
O=C(NC1CCc2cc(C#CC3CC3)cc3c2N(CC3)C1=O)c1ncn(Cc2c(F)cccc2F)n1 (stereo not drawn) [III-6, N-(9-(cyclopropylethynyl)-4-oxo-1,2,3,4,6,7-hexahydroazepino[3,2,1-hi]indol-3-yl)-1-(2,6-difluorobenzyl)-1H-1,2,4-triazole-3-carboxamide] | 10 to 100 | 5 to 10
